In article PMC8421423, “Cellular model system to dissect the isoform-selectivity of Akt inhibitors” (Nature Communications, 2021):
Values joined by “and” are separate entries in the source; they are usually repeats but may differ in a detail not shown here. Equal entries are not always repeated. Where two headings read alike, the source gives them in different places.

How the values were obtained:
[1] = target: Akt2 (Homo sapiens, UniProt P31751); assay: Cellular thermal shift assay (CETSA) in PANC1 cells; assay type: cell-based; parameters: purchased Thermo Fisher Scientific #PV3184; details: for tAkt2 %: CETSA PANC1, 2.5 µM
Sequence of Akt2 (P31751 whole entry): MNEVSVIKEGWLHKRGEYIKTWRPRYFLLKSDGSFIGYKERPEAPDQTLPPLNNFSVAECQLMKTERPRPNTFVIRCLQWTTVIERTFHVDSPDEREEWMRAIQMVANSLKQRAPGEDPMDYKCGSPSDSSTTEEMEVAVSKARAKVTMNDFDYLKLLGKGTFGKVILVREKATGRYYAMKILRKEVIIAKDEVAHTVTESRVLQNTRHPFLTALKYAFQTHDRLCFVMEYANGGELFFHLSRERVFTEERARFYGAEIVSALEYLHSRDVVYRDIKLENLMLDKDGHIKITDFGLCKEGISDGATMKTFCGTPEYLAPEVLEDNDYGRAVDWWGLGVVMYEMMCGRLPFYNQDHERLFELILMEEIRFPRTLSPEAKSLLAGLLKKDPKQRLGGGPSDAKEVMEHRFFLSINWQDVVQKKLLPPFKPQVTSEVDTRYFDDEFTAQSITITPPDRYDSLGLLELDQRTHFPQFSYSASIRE
Description: (§1) Cells were seeded into 100 mm tissue culture plates (Sarstedt) (PANC1: 10^6 cells). After 24 h incubation, cells were treated with 1 µM of inhibitors or DMSO and were incubated for 4.5 h. Cells were washed twice with ice-cold PBS and then suspended in 1 mL PBS. Cells were collected and separated into equal volumes (100 µL). The aliquots were treated individually with different temperatures for 3 min, followed by a 3 min incubation at room temperature. Cell lysis was initiated by adding 100 µL RIPA buffer and 2 freeze-thaw cycles in liquid nitrogen. The lysates were centrifuged at 21,130×g for 20 min at room temperature. The supernatants were transferred into fresh, pre-cooled microcentrifuge tubes, and analyzed by western blot analysis as described above.

[2] = target: T1, Akt1 (Homo sapiens, UniProt P31749); assay: STK HTRF KinEASE activity-based assay (IC50)
T1 sequence (P31749 whole entry): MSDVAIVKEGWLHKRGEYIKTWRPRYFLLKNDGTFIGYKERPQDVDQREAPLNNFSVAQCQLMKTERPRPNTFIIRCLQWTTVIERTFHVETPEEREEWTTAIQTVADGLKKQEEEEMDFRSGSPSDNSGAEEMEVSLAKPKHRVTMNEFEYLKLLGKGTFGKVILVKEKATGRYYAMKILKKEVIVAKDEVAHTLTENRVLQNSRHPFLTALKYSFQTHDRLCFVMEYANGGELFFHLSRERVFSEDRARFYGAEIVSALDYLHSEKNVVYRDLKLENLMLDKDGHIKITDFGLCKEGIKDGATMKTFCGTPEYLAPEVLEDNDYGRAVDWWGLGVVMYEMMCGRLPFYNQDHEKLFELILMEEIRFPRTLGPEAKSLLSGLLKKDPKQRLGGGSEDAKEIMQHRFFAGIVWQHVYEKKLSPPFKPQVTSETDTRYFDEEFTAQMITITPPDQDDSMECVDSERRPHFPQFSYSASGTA

[3] = test system: Ba/F3^myr-Akt1 cells; assay: CellTiter-Glo cell viability assay; details: for cell viability: CTG
Description: On day 0, cells were plated into white 384-well cell culture plates (Greiner Bio-One) using a Multidrop reagent dispenser (Thermo Fisher Scientific) at cell numbers that ensure linear and optimal luminescent signal intensity (Ba/F3myr-Akt1: 600 cells/well, Ba/F3myr-Akt2: 800 cells/well, Ba/F3myr-Akt3: 800 cells/well). […] Cell viability was analyzed on day 4 using the CellTiter-Glo Assay (Promega) as per the manufacturer’s instructions. […] All experimental points were measured in duplicates for each plate and were replicated in at least three plates.

[4] = CellTiter-Glo cell viability assay; assay type: cell-based, murine; details: mouse, parental Ba/F3 cells, CTG, parental, single replicates
[5] = test system: parental Ba/F3 cells; assay: CellTiter-Glo cell viability assay; assay type: cell-based, murine; details: for cell viability: CTG, parental
[6] = target: T1, Akt1; assay: Cellular thermal shift assay (CETSA) in PANC1 cells; assay type: cell-based; parameters: purchased ProQinase #1379-0000-2
Description: as §1

[7] = test system: Ba/F3^myr-Akt3 cells; assay: CellTiter-Glo cell viability assay; details: for cell viability: CTG
[8] = test system: pAkt2; assay: Western blot analysis, PANC1 cells; assay type: cell-based, human; details: PANC1, 24-h treatment
Description: Cells were seeded into six-well tissue culture plates (Sarstedt) (BaF3 myr-Akt1/2/3: 10^6 cells/well, PANC1: 250.000 cells/well). […] Cell lysis was initiated by addition of 100 μL RIPA buffer (Cell Signaling Technology) per well supplemented with phosphatase and protease inhibitor cocktails (Sigma) followed by incubation on ice for 20 min. Cells were then harvested by scraping (PANC1) or centrifugation (BaF3). Whole cell lysates were cleared by centrifugation at 14,000×g/4 °C for 10 min and transferred into fresh, pre-cooled microcentrifuge tubes. Protein concentrations were determined using the Pierce BCA protein assay (Thermo) as per manufacturer’s instructions. Equal amounts of protein were separated by SDS-PAGE and transferred to Immobilon-FL PVDF membranes (Merck Millipore) using Pierce™ 1-step transfer buffer (Thermo) and the Pierce™ Power Blotter (Thermo). Membranes were washed for 5 min with ddH2O, blocked with Intercept®Blocking Buffer TBS (Li-Cor) for 1 h at room temperature, and then incubated with primary antibodies diluted in Intercept®Blocking Buffer TBS overnight at 4 °C with gentle agitation. On the next day, the membranes were washed three times with TBS-T (50 mM Tris, 150 mM NaCl, 0.05 % Tween 20, pH 7.4) for 5 min before being incubated with secondary antibodies diluted in Intercept®Blocking Buffer TBS for 1 h at room temperature with gentle agitation. Finally, the membranes were washed three times for 5 min with TBS-T and then scanned using an Odyssey®CLx imaging system (Li-Cor).

[9] = cell viability assay Ba/F3 myr-Akt cells, log units

In the case of C=CC(=O)Nc1ccc2[nH]c(=O)n(C3CCN(Cc4ccc(-c5ncc(Cc6ccc(N)nc6)cc5-c5ccccc5)cc4)CC3)c2c1 [compound 20], the tAkt2 % ([1]; temperature 65.6) is reported as 35.73%, the tAkt2 % ([1]; temperature 70.9) is reported as 24.29% and the tAkt2 % ([1]; temperature 76) is reported as 12.62%. For the same compound, the tAkt2 % ([1]; temperature 79.9) was 0.00%, the “thermal stabilization of Akt2 (CETSA, in words)” value ([1]; PANC1, 2.5 µM) was “significant stabilization of Akt2 and Akt3” and the IC50 ([2]; HTRF IC50 Akt1, Mean, mean of replicates) was 1.63 µM. The IC50 ([2]; HTRF IC50 Akt1, individual determinations, single replicates) was 1.63 µM and 1.81 µM and 1.45 µM, the IC50 ([2]; IC50 Akt1, HTRF, ATP at KM, 1 h preincubation) was 1.63 ± 0.148 µM and the “Log ratio IC50 [Akt] / IC50 [Akt], Akt1 / Akt2” value ([2]; biochemical activity based assay, log units) was 0.97. For the same compound, the cell viability ([3]; myr-Akt1, 0.1 nM, single replicates, 0.0001 µM) was 108.0 % of control and 90.0 % of control, the cell viability ([3]; myr-Akt1, 5000 nM, single replicates, 5 µM) was 85.6 % of control and 91.8 % of control and the EC50 ([3]; Mus musculus, read-out: CTG BaF3myr-Akt1, Mean, mean of replicates) was 9.48 µM. It also gave an EC50 ([3]; Mus musculus, read-out: CTG BaF3myr-Akt1, individual determinations, single replicates) of 10 µM, a viability at 0.0001 µM ([3]; Mus musculus, read-out: cell viability, CTG, myr-Akt1, 0.1 nM, single replicates) of 102% and a viability at 5 µM ([3]; Mus musculus, read-out: cell viability, CTG, myr-Akt1, 5000 nM, single replicates) of 73.6%. The “Log ratio EC50 [Akt] / EC50 [Akt], Akt1 / Akt2” value [3, 9] was 0.27, the EC50 ([3]; read-out: CTG BaF3myr-Akt1, individual determinations, single replicates) was 9.21 µM and 9.25 µM and the viability at 3 days, 0.0001 µM ([4]; 0.1 nM, read-out: cell viability) was 104%. The viability at 3 days, 5 µM ([4]; 5000 nM) was 83.7%, the cell viability ([5]; 0.1 nM, single replicates, 0.0001 µM) was 98.4 % of control and 93.0 % of control and the cell viability ([5]; 5000 nM, single replicates, 5 µM) was 87.1 % of control and 85.4 % of control. The EC50 ([5]; Mus musculus, BaF3, parental cells, mean of replicates, read-out: CTG BaF3, Mean) was 12.1 µM, the EC50 ([5]; Mus musculus, BaF3, parental cells, single replicates, read-out: CTG BaF3, individual determinations) was 9.75 µM and the EC50 ([5]; parental cells, single replicates, read-out: CTG BaF3, individual determinations) was 9.72 µM and 18.6 µM. For the same compound, the tAkt1 % ([6]; CETSA PANC1, 1 µM, temperature 39.9) was 100.00%, the tAkt1 % ([6]; CETSA PANC1, 1 µM, temperature 43.5) was 45.86% and the tAkt1 % ([6]; CETSA PANC1, 1 µM, temperature 48.4) was 43.98%. For the same compound, the tAkt1 % ([6]; CETSA PANC1, 1 µM, temperature 53.8) was 34.21%, the tAkt1 % ([6]; CETSA PANC1, 1 µM, temperature 58.1) was 23.05% and the tAkt1 % ([6]; CETSA PANC1, 1 µM, temperature 61.4) was 19.70%. For the same compound, the tAkt1 % ([6]; CETSA PANC1, 1 µM, temperature 65.6) was 13.05%, the tAkt1 % ([6]; CETSA PANC1, 1 µM, temperature 70.9) was 3.12% and the tAkt1 % ([6]; CETSA PANC1, 1 µM, temperature 76) was 1.54%. The tAkt1 % ([6]; CETSA PANC1, 1 µM, temperature 79.9) was 0.00%, the tAkt1 % ([6]; CETSA PANC1, 2.5 µM, temperature 39.9) was 100.00% and the tAkt1 % ([6]; CETSA PANC1, 2.5 µM, temperature 43.5) was 55.35%. For the same compound, the tAkt1 % ([6]; CETSA PANC1, 2.5 µM, temperature 48.4) was 36.29%, the tAkt1 % ([6]; CETSA PANC1, 2.5 µM, temperature 53.8) was 40.13% and the tAkt1 % ([6]; CETSA PANC1, 2.5 µM, temperature 58.1) was 29.31%. It also gave a tAkt1 % ([6]; CETSA PANC1, 2.5 µM, temperature 61.4) of 31.38%, a tAkt1 % ([6]; CETSA PANC1, 2.5 µM, temperature 65.6) of 3.90% and a tAkt1 % ([6]; CETSA PANC1, 2.5 µM, temperature 70.9) of -1.89%. For the same compound, the tAkt1 % ([6]; CETSA PANC1, 2.5 µM, temperature 76) was 0.94%, the tAkt1 % ([6]; CETSA PANC1, 2.5 µM, temperature 79.9) was 0.00% and the cell viability ([7]; myr-Akt3, 0.1 nM, single replicates, 0.0001 µM) was 100.1 % of control and 113.6 % of control and 88.4 % of control. For the same compound, the cell viability ([7]; myr-Akt3, 5000 nM, single replicates, 5 µM) was 49.5 % of control and 56.5 % of control and 73.0 % of control, the EC50 ([7]; Mus musculus, read-out: CTG BaF3myr-Akt3, Mean, mean of replicates) was 5.05 µM and the EC50 ([7]; Mus musculus, read-out: CTG BaF3myr-Akt3, individual determinations, single replicates) was 5.1 µM. For the same compound, the “Log ratio EC50 [Akt] / EC50 [Akt], Akt3 / Akt2” value [7, 9] was -0.09, the EC50 ([7]; read-out: CTG BaF3myr-Akt3, individual determinations, single replicates) was 4.07 µM and 5.52 µM and the “pAkt2 level (immunoblot)” value [8] was “moderate downregulation of pAkt2”.
